pIC50: −log10 of the molar value.
System: 855422-203-R-J1-PDC complex spheroid viability
Experiment: Anticancer human tumor 855422-203-R-J1-PDC patient-derived bladder carcinoma cell line growth inhibition
Conditions: for pIC50: curve of first compound; for viability, T/C: stronger effect = lower value
Procedure, shortened: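 Drug combinations with the LSD1 inhibitor iadademstat tested on tumor cells co-cultured as spheroids with endothelial cells and mesenchymal stem cells. Concentrations descended in half-log increments from clinical Cmax or 10 microM.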

[1] = second compound 0.1 µM, first compound 0.00949 µM
[2] = second compound 0.1 µM, first compound 0.03 µM
[3] = second compound 0.1 µM, first compound 0.0949 µM
[4] = second compound 0.1 µM, first compound 0.3 µM
[5] = second compound 0.316 µM, first compound 0.00949 µM
[6] = second compound 0.316 µM, first compound 0.03 µM
[7] = second compound 0.316 µM, first compound 0.0949 µM
[8] = second compound 0.316 µM, first compound 0.3 µM
[9] = second compound 1 µM, first compound 0.00949 µM
[10] = second compound 1 µM, first compound 0.03 µM
[11] = second compound 1 µM, first compound 0.0949 µM
[12] = second compound 1 µM, first compound 0.3 µM
[13] = second compound 3.16 µM, first compound 0.00949 µM
[14] = second compound 3.16 µM, first compound 0.03 µM
[15] = second compound 3.16 µM, first compound 0.0949 µM
[16] = second compound 3.16 µM, first compound 0.3 µM
[17] = second compound 10 µM, first compound 0.00949 µM
[18] = second compound 10 µM, first compound 0.03 µM
[19] = second compound 10 µM, first compound 0.0949 µM
[20] = second compound 10 µM, first compound 0.3 µM
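Also: drug exposure lasted 7 days starting on day 3 after seeding.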
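For viability, T/C in this document: luminescence viability as percent of DMSO vehicle wells = 100%.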

COc1cc(C2c3cc4c(cc3C(OC3OC5COC(C)OC5C(O)C3O)C3COC(=O)C23)OCO4)cc(OC)c1O (stereo not given) + NC1CCC(NC2CC2c2ccccc2)CC1
pIC50 (second compound 0.1 µM): 6.82 | pIC50 (second compound 0.316 µM): 6.85 | pIC50 (second compound 1 µM): 6.86 | pIC50 (second compound 3.16 µM): 6.89 | pIC50 (second compound 10 µM): 6.89 | viability, T/C [1]: 89.8% | viability, T/C [2]: 87.1% | viability, T/C [3]: 57.6% | viability, T/C [4]: 35.6% | viability, T/C (second compound 0.1 µM, first compound 0.949 µM): 18.5% | viability, T/C (second compound 0.1 µM, first compound 3 µM): 9.63% | viability, T/C [5]: 92% | viability, T/C [6]: 86.4% | viability, T/C [7]: 55.4% | viability, T/C [8]: 34.6% | viability, T/C (second compound 0.316 µM, first compound 0.949 µM): 19.5% | viability, T/C (second compound 0.316 µM, first compound 3 µM): 10.1% | viability, T/C [9]: 85.2% | viability, T/C [10]: 81.9% | viability, T/C [11]: 56.9% | viability, T/C [12]: 31.7% | viability, T/C (second compound 1 µM, first compound 0.949 µM): 16.4% | viability, T/C (second compound 1 µM, first compound 3 µM): 8.66% | viability, T/C [13]: 85% | viability, T/C [14]: 84.9% | viability, T/C [15]: 53.6% | viability, T/C [16]: 30.5% | viability, T/C (second compound 3.16 µM, first compound 0.949 µM): 17% | viability, T/C (second compound 3.16 µM, first compound 3 µM): 8.59% | viability, T/C [17]: 78.4% | viability, T/C [18]: 79.7% | viability, T/C [19]: 57.7% | viability, T/C [20]: 26.8% | viability, T/C (second compound 10 µM, first compound 0.949 µM): 15.8% | viability, T/C (second compound 10 µM, first compound 3 µM): 8.09%

Nc1ccn(C2OC(CO)C(O)C2(F)F)c(=O)n1 (stereo not given) + NC1CCC(NC2CC2c2ccccc2)CC1
pIC50 (second compound 0.1 µM): 8.36 | pIC50 (second compound 0.316 µM): 8.24 | pIC50 (second compound 1 µM): 8.21 | pIC50 (second compound 3.16 µM): 8.17 | pIC50 (second compound 10 µM): 8.07 | viability, T/C (second compound 0.1 µM, first compound 0.000949 µM): 90.5% | viability, T/C (second compound 0.1 µM, first compound 0.003 µM): 53.3% | viability, T/C [1]: 39.5% | viability, T/C [2]: 34.7% | viability, T/C [3]: 28.7% | viability, T/C [4]: 24.4% | viability, T/C (second compound 0.316 µM, first compound 0.000949 µM): 86.6% | viability, T/C (second compound 0.316 µM, first compound 0.003 µM): 58.9% | viability, T/C [5]: 41.3% | viability, T/C [6]: 34.8% | viability, T/C [7]: 30% | viability, T/C [8]: 20.6% | viability, T/C (second compound 1 µM, first compound 0.000949 µM): 88.5% | viability, T/C (second compound 1 µM, first compound 0.003 µM): 57.2% | viability, T/C [9]: 45.4% | viability, T/C [10]: 37.9% | viability, T/C [11]: 32.5% | viability, T/C [12]: 28.6% | viability, T/C (second compound 3.16 µM, first compound 0.000949 µM): 79.2% | viability, T/C (second compound 3.16 µM, first compound 0.003 µM): 63.1% | viability, T/C [13]: 43.5% | viability, T/C [14]: 35.1% | viability, T/C [15]: 26.8% | viability, T/C [16]: 24.7% | viability, T/C (second compound 10 µM, first compound 0.000949 µM): 82.1% | viability, T/C (second compound 10 µM, first compound 0.003 µM): 55.9% | viability, T/C [17]: 52% | viability, T/C [18]: 39.9% | viability, T/C [19]: 27.6% | viability, T/C [20]: 22.3%

Nc1ncn(C2CC(O)C(CO)O2)c(=O)n1 (stereo not given) + NC1CCC(NC2CC2c2ccccc2)CC1
pIC50 (second compound 0.1 µM): < 6.00 | pIC50 (second compound 0.316 µM): < 6.00 | pIC50 (second compound 1 µM): < 6.00 | pIC50 (second compound 3.16 µM): < 6.00 | pIC50 (second compound 10 µM): < 6.00 | viability, T/C (second compound 0.1 µM, first compound 0.00316 µM): 91.5% | viability, T/C (second compound 0.1 µM, first compound 0.01 µM): 91.2% | viability, T/C (second compound 0.1 µM, first compound 0.0316 µM): 95.6% | viability, T/C (second compound 0.1 µM, first compound 0.1 µM): 85.5% | viability, T/C (second compound 0.1 µM, first compound 0.316 µM): 83.1% | viability, T/C (second compound 0.1 µM, first compound 1 µM): 85.2% | viability, T/C (second compound 0.316 µM, first compound 0.00316 µM): 93.6% | viability, T/C (second compound 0.316 µM, first compound 0.01 µM): 93.1% | viability, T/C (second compound 0.316 µM, first compound 0.0316 µM): 90.2% | viability, T/C (second compound 0.316 µM, first compound 0.1 µM): 92.2% | viability, T/C (second compound 0.316 µM, first compound 0.316 µM): 83% | viability, T/C (second compound 0.316 µM, first compound 1 µM): 84.7% | viability, T/C (second compound 1 µM, first compound 0.00316 µM): 88.6% | viability, T/C (second compound 1 µM, first compound 0.01 µM): 94.5% | viability, T/C (second compound 1 µM, first compound 0.0316 µM): 93.6% | viability, T/C (second compound 1 µM, first compound 0.1 µM): 86.4% | viability, T/C (second compound 1 µM, first compound 0.316 µM): 90.1% | viability, T/C (second compound 1 µM, first compound 1 µM): 85.3% | viability, T/C (second compound 3.16 µM, first compound 0.00316 µM): 87.5% | viability, T/C (second compound 3.16 µM, first compound 0.01 µM): 81.1% | viability, T/C (second compound 3.16 µM, first compound 0.0316 µM): 79.7% | viability, T/C (second compound 3.16 µM, first compound 0.1 µM): 91.4% | viability, T/C (second compound 3.16 µM, first compound 0.316 µM): 85.9% | viability, T/C (second compound 3.16 µM, first compound 1 µM): 88.9% | viability, T/C (second compound 10 µM, first compound 0.00316 µM): 84.3% | viability, T/C (second compound 10 µM, first compound 0.01 µM): 86.9% | viability, T/C (second compound 10 µM, first compound 0.0316 µM): 85.3% | viability, T/C (second compound 10 µM, first compound 0.1 µM): 88.4% | viability, T/C (second compound 10 µM, first compound 0.316 µM): 88.2% | viability, T/C (second compound 10 µM, first compound 1 µM): 80.5%

— PubChem BioAssay AID1918943 (Molecular Pharmacology Branch, DTP, NCI, 2023)
